pIC50: −log10 of the molar value. No end group written: not given here.
Experiments:
Experiment in all cases: biochemical
Assay type in all cases: binding
[1] = biological target: HLA-DR DRB1*0802 (DR8) (Homo sapiens, UniProt P01903+P01911, A100R/A103L/A169T/F76Y/H45Y/I96F/K41T/L162R/M171V/P40S/Q125H/Q178H/Q39Y/Q99D/R218S/R42G/S66Y/V115G/W38E)
[2] = biological target: HLA-DR DRB1*1101 (DR11) (Homo sapiens, UniProt P01903+P01911, A100R/A169T/A87E/I96F/K41T/L162R/M171V/P40S/Q125H/Q178H/Q39Y/Q99D/R42S/S66Y/T262R/V115G/W38E); conditions: DRB1 *1101
[3] = biological target: HLA-DR DRB3*0101 (DR52) (Homo sapiens, UniProt P01903+P79483)
[4] = biological target: HLA-DR DRB5*0101 (DR51) (Homo sapiens, UniProt P01903+Q30154); conditions: DRB5 *0101
[5] = biological target: HLA-DR DRB1*1302 (DR13) (Homo sapiens, UniProt P01903+P01911, A100E/A169T/K41T/L162R/M171V/P40S/Q125H/Q178H/Q39Y/Q99D/R42S/S66N/T262R/V115G/W38E/Y61H); conditions: DRBI *1302
[6] = biological target: HLA-DR DRB1*0101 (DR1) (Homo sapiens, UniProt P01903+P01911, A100R/D57E/F55L/F60I/F76Y/I96L/L162R/M171V/P40L/Q125E/R42F/V115G/Y59C); conditions: DRB1 *0101
[7] = biological target: HLA-DR DRB4*0101 (DR53) (Homo sapiens, UniProt P01903+P13762, G164S); conditions: DRB4 *0101
[8] = biological target: HLA-DR DRB1*0901 (DR9) (Homo sapiens, UniProt P01903+P01911, A100R/A103E/D57H/D86V/F55Y/F60I/F76Y/I96F/K127E/L162R/M171V/P40D/Q125H/Q99R/R33Q/R42F/S133A/S66N/T210M/V115G/W38K/Y107V/Y59G/Y89S); conditions: DRB1 *0901
[9] = biological target: HLA-DR DRB1*0701 (DR7) (Homo sapiens, UniProt P01903+P01911, A100R/A102G/A103Q/D57E/D86V/E43K/F76Y/K127E/L162R/M171V/P40G/Q125H/Q99D/R33Q/R42Y/R54Q/S133A/S66F/T210M/V115G/Y107V/Y59L/Y89S); conditions: DRB1 *0701
[10] = biological target: HLA-DR DRB1*1501 (DR15) (Homo sapiens, UniProt P01903+P01911); conditions: DRBI *1501
[11] = biological target: HLA-DR DRB1*0401 (DR4) (Homo sapiens, UniProt P01903+P01911, A100K/A169T/F76Y/I96L/K127E/L162R/M171V/N62H/P40V/Q125Y/R42H/S133A/S149N/S66Y/V115G/V209L/W38E); conditions: DRB1 *0401

HLA-DR DRB1*1302 (DR13), sequence (P01903 26-254 limits assumed, other chains not shown): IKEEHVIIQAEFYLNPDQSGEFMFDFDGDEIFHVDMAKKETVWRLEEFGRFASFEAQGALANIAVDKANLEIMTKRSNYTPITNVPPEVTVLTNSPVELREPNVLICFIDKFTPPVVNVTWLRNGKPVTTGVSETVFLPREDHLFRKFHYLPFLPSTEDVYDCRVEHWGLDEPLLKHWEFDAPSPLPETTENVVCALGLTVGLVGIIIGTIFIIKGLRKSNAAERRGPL
HLA-DR DRB1*1101 (DR11), sequence (P01903 26-254 limits assumed, other chains not shown): as above

For CC(C)C[C@H](NC(=O)CNC(=O)[C@H](CC(N)=O)NC(=O)[C@@H](N)Cc1ccc(O)cc1)C(=O)N[C@@H](CC(C)C)C(=O)N1CCC[C@H]1C(=O)N1CCC[C@H]1C(=O)N[C@@H](Cc1ccc(O)cc1)C(=O)N[C@@H](C)C(=O)N[C@@H](CO)C(=O)N[C@@H](CS)C(=O)N[C@@H](Cc1c[nH]cn1)C(=O)N[C@@H](CC(C)C)C(=O)N[C@H](C(=O)N[C@@H](CCC(=O)O)C(=O)O)[C@@H](C)O, the pIC50 [1] was 4.85, the pIC50 [2] was 5.28 and the pIC50 [3] was under 4.83. The pIC50 [4] was at most 4.00, the pIC50 [5] was 4.93 and the pIC50 [6] was 7.38. The pIC50 [7] was under 4.96, the pIC50 [8] was 5.10 and the pIC50 [9] was under 4.08. It also gave a pIC50 [10] of 6.60 and a pIC50 [11] of 5.21.

GRAVCGGVLVHPQWV showed a pIC50 [1] of under 3.61, a pIC50 [2] of under 4.30 and a pIC50 [3] of under 4.92. The pIC50 [4] was at most 4.00, the pIC50 [5] was 5.26 and the pIC50 [6] was 6.41. It also gave a pIC50 [7] of 7.21, a pIC50 [8] of 5.09 and a pIC50 [9] of 5.45. It also gave a pIC50 [10] of 4.89 and a pIC50 [11] of under 4.57.

Work on KSRLQGGVLVNEILN yielded a pIC50 [1] of under 4.09, a pIC50 [2] of under 4.18 and a pIC50 [3] of under 4.83. It also gave a pIC50 [4] of under 4.00, a pIC50 [5] of 6.50 and a pIC50 [6] of 6.44. It also gave a pIC50 [7] of 6.15, a pIC50 [8] of 5.26 and a pIC50 [9] of 5.55. For the same molecule, the pIC50 [10] was under 4.52 and the pIC50 [11] was under 4.57.

NGVLQGITSWGPEPC gave a pIC50 [1] of 4.28, a pIC50 [2] of 4.49 and a pIC50 [3] of under 4.84. It also gave a pIC50 [4] of under 4.00, a pIC50 [5] of under 4.76 and a pIC50 [6] of 5.96. It also gave a pIC50 [7] of 5.24, a pIC50 [8] of 4.30 and a pIC50 [9] of 5.64. The pIC50 [10] was 6.08 and the pIC50 [11] was 5.07.

For PEEFLRPRSLQCVSL, the pIC50 [1] was 5.66, the pIC50 [2] was 4.97 and the pIC50 [3] was under 4.84. The pIC50 [4] was 4.24, the pIC50 [5] was 4.93 and the pIC50 [6] was 5.70. For the same molecule, the pIC50 [7] was 6.93, the pIC50 [8] was 5.23 and the pIC50 [9] was 5.29. It also gave a pIC50 [10] of 5.50 and a pIC50 [11] of under 4.57.

With PHPLYNMSLLKHQSL the pIC50 [1] was 5.48, the pIC50 [2] was 5.19 and the pIC50 [3] was under 4.83. For the same molecule, the pIC50 [4] was 5.72, the pIC50 [5] was 5.48 and the pIC50 [6] was 4.72. The pIC50 [7] was 7.31, the pIC50 [8] was 5.80 and the pIC50 [9] was 4.68. It also gave a pIC50 [10] of 5.41 and a pIC50 [11] of 6.09.

SLSLGFLFLLFFWLD was tested, and the pIC50 [1] was under 3.91, the pIC50 [2] was 4.00 and the pIC50 [3] was 5.43. For the same molecule, the pIC50 [4] was 4.18, the pIC50 [5] was 6.19 and the pIC50 [6] was 4.94. For the same molecule, the pIC50 [7] was under 4.96, the pIC50 [8] was 4.61 and the pIC50 [9] was 4.64. It also gave a pIC50 [10] of 4.94 and a pIC50 [11] of 5.33.

— patent US20060079453A1, “Hla binding peptides and their uses” (priority 2002, published 2006)
